Test results reported in patent publication US12312332B2 (Merck Sharp & Dohme LLC., priority 2019, dated 2025).

Biological target: T1, human OX2R (Homo sapiens, UniProt O43614)
T1 construct: expressed in transfected cells; host or cells: Chinese hamster ovary (CHO) cells, kept under G418 selection
T1 sequence (O43614 1-444): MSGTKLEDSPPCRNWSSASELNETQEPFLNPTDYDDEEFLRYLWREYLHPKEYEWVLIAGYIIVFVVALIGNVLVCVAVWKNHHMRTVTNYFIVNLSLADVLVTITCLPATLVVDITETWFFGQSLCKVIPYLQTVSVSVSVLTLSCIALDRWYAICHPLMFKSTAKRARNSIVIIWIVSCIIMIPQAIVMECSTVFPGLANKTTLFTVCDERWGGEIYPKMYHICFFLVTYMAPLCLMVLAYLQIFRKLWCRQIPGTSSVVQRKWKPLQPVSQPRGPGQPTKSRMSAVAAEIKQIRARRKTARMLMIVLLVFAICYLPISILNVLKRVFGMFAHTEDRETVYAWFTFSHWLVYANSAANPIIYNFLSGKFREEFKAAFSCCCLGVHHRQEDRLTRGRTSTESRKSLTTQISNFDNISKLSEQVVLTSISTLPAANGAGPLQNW
Assay: IPOne (IP-One) orexin receptor agonist assay in CHO cells expressing human OX2R
Assay type: cell-based
Conditions: for EC50: CHO cells expressing human OX2R, IP-One detection, 2 hours incubation, four parameter logistic fit, read-out: OX2R Potency, EC50; for % max agonist effect (Emax): human OX2R, percentage of sample raw value/mean max effect (reference compound at 1 uM with 100% activity)
Text: The utility of the compounds in accordance with the present invention as orexin receptor OX1R and/or OX2R agonists may be readily determined without undue experimentation by methodology well known in the art. Both the OX1R and/or OX2R G-coupled protein receptors (GPCRs) couple through the Gaq signaling pathway, which ultimately promotes calcium mobilization via inositol triphosphate (IP3) production. […] The utility of the compounds in accordance with the present invention as orexin receptor OX1R and/or OX2R agonists may be determined utilizing this assay.
In a typical experiment, the OX1 and OX2 receptor agonist activity is determined in accordance with the following general experimental method. Chinese hamster ovary (CHO) cells expressing human OX1R and/or the human OX2R were grown in Iscove's modified DMEM containing glutaMAX™, 1% G418, 100 U/mL penicillin, 100 μg/mL streptomycin and 10% heat-inactivated qualified fetal bovine serum (FBS). […] During this incubation, IP-one detection reagents were prepared (38:1:1 lysis buffer:D2:AB-cryptate reagents).
For each compound, data were fit to a four parameter logistic fit (ActivityBase software) and the EC50 was reported as the inflection point of the resulting curve. Percent effect for each test compound was determined as the percentage of sample raw value/mean max effect, where the mean max effect was derived from the mean raw value of 32 control wells per assay plate (using Orexin A (cat #003-30) at 1 μM for human OX1R and a reference compound at 1 uM with 100% activity previously established by comparison to Orexin A for human OX2R). The intrinsic orexin receptor agonist activity of a compound which may be used in the present invention may be determined by these assays.

**Q.** `CS(=O)(=O)N[C@H]1CCN(c2cccnc2)[C@H]1CO[C@H]1CC[C@@H](c2ccccc2)CC1` [Example 20, N-((2R,3S)-2-((((CIS)-4-phenylcyclohexyl)oxy)methyl)-1-(pyridin-3-yl)pyrrolidin-3-yl)methanesulfonamide] was tested. Which EC50 did it give?
**A.** 20.4 nM

**Q.** And the “% max agonist effect (Emax)” value?
**A.** 101.0%

**Q.** What does the source list for `CS(=O)(=O)N[C@H]1CCN(c2ccc(F)c(C(F)F)c2)[C@H]1CO[C@H]1CC[C@@H](c2ccccc2)CC1` [Example 21, N-((2R,3S)-1-(3-(difluoromethyl)-4-fluorophenyl)-2-((((CIS)-4-phenylcyclohexyl)oxy)methyl)pyrrolidin-3-yl)methanesulfonamide]?
**A.** EC50: 8490 nM; % max agonist effect (Emax): 57.0%

**Q.** For `CS(=O)(=O)N[C@H]1CCN(c2ccc(C(F)F)cc2F)[C@H]1CO[C@H]1CC[C@@H](c2ccccc2)CC1` [Example 22, N-((2R,3S)-1-(4-(difluoromethyl)-2-fluorophenyl)-2-((((CIS)-4-phenylcyclohexyl)oxy)methyl)pyrrolidin-3-yl)methanesulfonamide], which EC50 is on record?
**A.** > 10000 nM

**Q.** And the “% max agonist effect (Emax)” value?
**A.** 57.5%

**Q.** Which EC50 does the source give for `CS(=O)(=O)N[C@H]1CCN(c2ccc(=O)n(C(F)F)c2)[C@H]1CO[C@H]1CC[C@@H](c2ccccc2)CC1` [Example 23, N-((2R,3S)-1-(1-(difluoromethyl)-6-oxo-1,6-dihydropyridin-3-yl)-2-((((CIS)-4-phenylcyclohexyl)-oxy)methyl)pyrrolidin-3 - yl)methanesulfonamide] here?
**A.** 4640 nM

**Q.** What about the “% max agonist effect (Emax)” value of the same compound?
**A.** 81.2%

**Q.** With `CS(=O)(=O)N[C@H]1CCN(c2ccc(C(F)F)nc2)[C@H]1CO[C@H]1CC[C@@H](c2ccccc2)CC1` [Example 24, N-((2R,3S)-1-(6-(difluoromethyl)pyridin-3-yl)-2-((((CIS)-4-phenylcyclohexyl)-oxy)methyl)pyrrolidin-3-yl)methanesulfonamide] as the compound, how does the EC50 read?
**A.** 50 nM

**Q.** And the “% max agonist effect (Emax)” value?
**A.** 100.7%

**Q.** With `CS(=O)(=O)N[C@H]1CCN(c2ccnc(C#N)c2)[C@H]1CO[C@H]1CC[C@@H](c2ccccc2)CC1` [Example 25, N-((2R,3S)-1-(2-cyanopyridin-4-yl)-2-((((CIS)-4-phenylcyclohexyl)oxy)methyl)pyrrolidin-3-yl)methanesulfonamide] as the compound, how does the EC50 read?
**A.** 5770 nM

**Q.** What about the “% max agonist effect (Emax)” value of the same compound?
**A.** 78.6%

**Q.** What does the source list for `CS(=O)(=O)N[C@H]1CCN(c2cncs2)[C@H]1CO[C@H]1CC[C@@H](c2ccccc2)CC1` [Example 26, N-((2R,3S)-2-((((CIS)-4-phenylcyclohexyl)oxy)methyl)-1-(thiazol-5-yl)pyrrolidin-3-yl)methanesulfonamide]?
**A.** EC50: 444 nM; % max agonist effect (Emax): 99.0%

**Q.** How did the EC50 turn out when `CS(=O)(=O)N[C@H]1CCN(c2nccs2)[C@H]1CO[C@H]1CC[C@@H](c2ccccc2)CC1` [Example 27, N-((2R,3S)-2-((((CIS)-4-phenylcyclohexyl)oxy)methyl)-1-(thiazol-2-yl)pyrrolidin-3-yl)methanesulfonamide] was run?
**A.** 70.2 nM

**Q.** And the “% max agonist effect (Emax)” value?
**A.** 98.9%

**Q.** `Cn1ccnc1N1CC[C@H](NS(C)(=O)=O)[C@@H]1CO[C@H]1CC[C@@H](c2ccccc2)CC1` [Example 28, N-((2R,3S)-1-(1-methyl-1H-imidazol-2-yl)-2-((((CIS)-4-phenylcyclohexyl)oxy)methyl)pyrrolidin-3-yl)methanesulfonamide] was tested. Which EC50 did it give?
**A.** 105 nM

**Q.** And the “% max agonist effect (Emax)” value?
**A.** 100.0%

**Q.** Which results are given for `Cc1cnc(N2CC[C@H](NS(C)(=O)=O)[C@@H]2CO[C@H]2CC[C@@H](c3ccccc3)CC2)n1C` [Example 29, N-((2R,3S)-1-(1,5-dimethyl-1H-imidazol-2-yl)-2-((((CIS)-4-phenylcyclohexyl)oxy)methyl)pyrrolidin-3-yl)methanesulfonamide]?
**A.** EC50: 366 nM; % max agonist effect (Emax): 100.0%

**Q.** How did the EC50 turn out when `Cc1c(N2CC[C@H](NS(C)(=O)=O)[C@@H]2CO[C@H]2CC[C@@H](c3ccccc3)CC2)cnn1C` [Example 30, N-((2R,3S)-1-(1,5-dimethyl-1H-pyrazol-4-yl)-2-((((CIS)-4-phenylcyclohexyl)oxy)methyl)pyrrolidin-3-yl)methanesulfonamide] was run?
**A.** 149 nM

**Q.** What about the “% max agonist effect (Emax)” value of the same compound?
**A.** 100.0%

**Q.** Which EC50 does the source give for `Cn1nnnc1N1CC[C@H](NS(C)(=O)=O)[C@@H]1CO[C@H]1CC[C@@H](c2ccccc2)CC1` [Example 31, N-((2R,3S)-1-(1-methyl-1H-tetrazol-5-yl)-2-((((CIS)-4-phenylcyclohexyl)oxy)methyl)pyrrolidin-3-yl)methanesulfonamide] here?
**A.** 2.6 nM

**Q.** And the “% max agonist effect (Emax)” value?
**A.** 101.5%

**Q.** `Cc1ncc(N2CC[C@H](NS(C)(=O)=O)[C@@H]2CO[C@H]2CC[C@@H](c3ccccc3)CC2)n1C` [Example 32, N-((2R,3S)-1-(1,2-dimethyl-1H-imidazol-5-yl)-2-((((CIS)-4-phenylcyclohexyl)oxy)methyl)pyrrolidin-3-yl)methanesulfonamide] was tested. Which EC50 did it give?
**A.** 37 nM

**Q.** What about the “% max agonist effect (Emax)” value of the same compound?
**A.** 100.2%

**Q.** For `CS(=O)(=O)N[C@H]1CCN(c2ncns2)[C@H]1CO[C@H]1CC[C@@H](c2ccccc2)CC1` [Example 33, N-((2R,3S)-2-((((CIS)-4-phenylcyclohexyl)oxy)methyl)-1-(1,2,4-thiadiazol-5-yl)pyrrolidin-3-yl)methanesulfonamide], which EC50 is on record?
**A.** 146 nM

**Q.** What about the “% max agonist effect (Emax)” value of the same compound?
**A.** 101.0%

**Q.** What does the source list for `CS(=O)(=O)N[C@H]1CCN(c2ccc(C(F)(F)F)nc2)[C@H]1CO[C@H]1CC[C@@H](c2ccccc2)CC1` [Example 34, N-((2R,3S)-2-((((CIS)-4-phenylcyclohexyl)oxy)methyl)-1-(6-(trifluoromethyl)pyridin-3-yl)pyrrolidin-3-yl)methanesulfonamide]?
**A.** EC50: 70 nM; % max agonist effect (Emax): 99.6%

**Q.** With `CS(=O)(=O)N[C@H]1CCN(c2ccc(OC(F)F)cn2)[C@H]1CO[C@H]1CC[C@@H](c2ccccc2)CC1` [Example 35, N-((2R,3S)-1-(5-(difluoromethoxy)pyridin-2-yl)-2-((((CIS)-4-phenylcyclohexyl)oxy)methyl)pyrrolidin-3-yl)methanesulfonamide] as the compound, how does the EC50 read?
**A.** 176 nM

**Q.** What about the “% max agonist effect (Emax)” value of the same compound?
**A.** 104.3%

**Q.** Which results are given for `CS(=O)(=O)N[C@H]1CCN(c2ccc(OCCF)cc2)[C@H]1CO[C@H]1CC[C@@H](c2ccccc2)CC1` [Example 36, N-((2R,3S)-1-(4-(2-fluoroethoxy)phenyl)-2-((((CIS)-4-phenylcyclohexyl)oxy)methyl)pyrrolidin-3-yl)methanesulfonamide]?
**A.** EC50: 2790 nM; % max agonist effect (Emax): 54.1%

**Q.** Which EC50 does the source give for `Cc1nnc(N2CC[C@H](NS(C)(=O)=O)[C@@H]2CO[C@H]2CC[C@@H](c3ccccc3)CC2)o1` [Example 37, N-((2R,3 S)-1-(5-methyl-1,3,4-oxadiazol-2-yl)-2-((((CIS)-4-phenylcyclohexyl)oxy)methyl)pyrrolidin-3-yl)methanesulfonamide] here?
**A.** 670 nM

**Q.** And the “% max agonist effect (Emax)” value?
**A.** 101.5%

**Q.** How did the EC50 turn out when `CS(=O)(=O)N[C@H]1CCN(c2ncccn2)[C@H]1CO[C@H]1CC[C@@H](c2ccccc2)CC1` [Example 38, N-((2R,3S)-2-((((CIS)-4-phenylcyclohexyl)oxy)methyl)-1-(pyrimidin-2-yl)pyrrolidin-3-yl)methanesulfonamide] was run?
**A.** 784 nM

**Q.** And the “% max agonist effect (Emax)” value?
**A.** 97.1%

**Q.** For `CS(=O)(=O)N[C@H]1CCN(c2occc2C#N)[C@H]1CO[C@H]1CC[C@@H](c2ccccc2)CC1` [Example 39, N-((2R,3 S)-1-(3-cyanofuran-2-yl)-2-((((CIS)-4-phenylcyclohexyl)oxy)methyl)pyrrolidin-3-yl)methanesulfonamide], which EC50 is on record?
**A.** 613 nM

**Q.** What about the “% max agonist effect (Emax)” value of the same compound?
**A.** 98.4%

**Q.** Which results are given for `Cn1cc(N2CC[C@H](NS(C)(=O)=O)[C@@H]2CO[C@H]2CC[C@@H](c3ccccc3)CC2)cn1` [Example 40, N-((2R,3S)-1-(1-methyl-1H-pyrazol-4-yl)-2-((((CIS)-4-phenylcyclohexyl)oxy)methyl)pyrrolidin-3-yl)methanesulfonamide]?
**A.** EC50: 431 nM; % max agonist effect (Emax): 98.8%

**Q.** With `CS(=O)(=O)N[C@H]1CCN(c2cnc(C(F)(F)F)nc2)[C@H]1CO[C@H]1CC[C@@H](c2ccccc2)CC1` [Example 41] as the compound, how does the EC50 read?
**A.** 172 nM

**Q.** What about the “% max agonist effect (Emax)” value of the same compound?
**A.** 100.2%

**Q.** How did the EC50 turn out when `CS(=O)(=O)N[C@H]1CCN(c2cncnc2)[C@H]1CO[C@H]1CC[C@@H](c2ccccc2)CC1` [Example 42, N-((2R,3S)-2-((((CIS)-4-phenylcyclohexyl)oxy)methyl)-1-(pyrimidin-5-yl)pyrrolidin-3-yl)methanesulfonamide] was run?
**A.** 134 nM

**Q.** And the “% max agonist effect (Emax)” value?
**A.** 100.9%
